SMILES strings stand for the structures.

In the test the target is T1, Bovine thymus 1α,25-dihydroxyvitamin D3 receptor (VDR) (Bos taurus, UniProt Q28037).
T1 sequence (Q28037 1-426): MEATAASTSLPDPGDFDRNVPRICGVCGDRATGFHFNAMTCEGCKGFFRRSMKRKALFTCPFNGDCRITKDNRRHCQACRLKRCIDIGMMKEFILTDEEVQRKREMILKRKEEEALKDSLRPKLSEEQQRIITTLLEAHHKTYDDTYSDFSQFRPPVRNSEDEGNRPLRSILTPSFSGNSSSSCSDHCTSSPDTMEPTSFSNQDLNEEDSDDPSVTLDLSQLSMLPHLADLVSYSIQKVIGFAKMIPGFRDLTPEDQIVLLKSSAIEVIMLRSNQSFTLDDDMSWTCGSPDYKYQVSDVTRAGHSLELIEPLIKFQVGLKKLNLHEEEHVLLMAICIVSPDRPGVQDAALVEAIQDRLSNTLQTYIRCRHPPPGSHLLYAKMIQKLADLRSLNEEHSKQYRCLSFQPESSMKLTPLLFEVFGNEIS
The settings on record: relative value, 1α,25-dihydroxyvitamin D3 taken as 100; X=(y/x)×100 from concentrations inhibiting 50% of [3H]-1α,25-dihydroxyvitamin D3 binding (0.1 nM) to VDR.
As to `C=C1/C(=C/C=C2\CCCC3(C)C2CCC3[C@H](C)CCCC(C)(C)O)C[C@@H](O)[C@@H](C)[C@@H]1O` (stereo partly drawn) [Example 1, (5E,7E)-(1S,2R,3R)-2-methyl-9,10-seco-5,7,10(19)-cholestatriene-1,3,25-triol], the VDR binding property stood at 8.6.

As for `C=C1/C(=C/C=C2\CCCC3(C)C2CCC3[C@H](C)CCCC(C)(C)O)C[C@@H](O)[C@H](C)[C@@H]1O` (stereo partly drawn) [Example 2, (5E,7E)-(1S,2S,3R)-2-methyl-9,10-seco-5,7,10(19)-cholestatriene-1,3,25-triol], the VDR binding property is 0.4. Under `C=C1/C(=C/C=C2\CCC[C@]3(C)[C@@H]([C@H](C)CCCC(C)(C)O)CC[C@@H]23)C[C@@H](O)[C@@H](C)[C@H]1O` [Example 3, (5E,7E)-(1R,2R,3R)-2-methyl-9,10-seco-5,7,10(19)-cholestatriene-1,3,25-triol] stands 0.1. `C=C1C(=CC=C2CCCC3(C)C2CCC3C(C)CCCC(C)(C)O)CC(O)C(C)C1O` [Example 4, (5E,7E)-(1R,2S,3R)-2-methyl-9,10-seco-5,7,10(19)-cholestatriene-1,3,25-triol] showed a VDR binding property of under 0.01. Compound `C=C1/C(=C/C=C2\CCCC3(C)C2CCC3[C@H](C)CCCC(C)(C)O)C[C@H](O)[C@@H](C)[C@@H]1O` (stereo partly drawn) [Example 5, (5E,7E)-(1S,2R,3S)-2-methyl-9,10-seco-5,7,10(19)-cholestatriene-1,3,25-triol] had a VDR binding property of 0.04. For `C=C1/C(=C/C=C2\CCCC3(C)C2CCC3[C@H](C)CCCC(C)(C)O)C[C@H](O)[C@H](C)[C@@H]1O` (stereo partly drawn) [Example 6, (5E,7E)-(1S,2S,3S)-2-methyl-9,10-seco-5,7,10(19)-cholestatriene-1,3,25-triol], the VDR binding property was 0.013. `C=C1/C(=C/C=C2\CCCC3(C)C2CCC3[C@H](C)CCCC(C)(C)O)C[C@H](O)[C@@H](C)[C@H]1O` (stereo partly drawn) [Example 7, (5E,7E)-(1R,2R,3S)-2-methyl-9,10-seco-5,7,10(19)-cholestatriene-1,3,25-triol] showed a VDR binding property of 0.03. Under `C=C1/C(=C/C=C2\CCCC3(C)C2CCC3[C@H](C)CCCC(C)(C)O)C[C@H](O)[C@H](C)[C@H]1O` (stereo partly drawn) [Example 8, (5E,7E)-(1R,2S,3S)-2-methyl-9,10-seco-5,7,10(19)-cholestatriene-1,3,25-triol] stands under 0.01. Then `C=C1/C(=C/C=C2\CCCC3(C)C2CCC3[C@@H](C)CCCC(C)(C)O)C[C@@H](O)[C@@H](C)[C@@H]1O` (stereo partly drawn) [Example 9, (5E,7E)-(1S,2R,3R,20S)-2-methyl-9,10-seco-5,7,10(19)-cholestatriene-1,3,25-triol], with 45.

`C=C1/C(=C/C=C2\CCCC3(C)C2CCC3[C@@H](C)CCCC(C)(C)O)C[C@@H](O)[C@H](C)[C@@H]1O` (stereo partly drawn) [Example 10, (5E,7E)-(1S,2S,3R,20S)-2-methyl-9,10-seco-5,7,10(19)-cholestatriene-1,3,25-triol]: the VDR binding property came out at 1. As to `C=C1C(=CC=C2CCCC3(C)C2CCC3C(C)CCCC(C)(C)O)CC(O)C(C)C1O` [Example 11, (5E,7E)-(1R,2R,3R,20S)-2-methyl-9,10-seco-5,7,10(19)-cholestatriene-1,3,25-triol], the VDR binding property came to 0.8. As to `C=C1/C(=C/C=C2\CCCC3(C)C2CCC3[C@@H](C)CCCC(C)(C)O)C[C@@H](O)[C@H](C)[C@H]1O` (stereo partly drawn) [Example 12, (5E,7E)-(1R,2S,3R,20S)-2-methyl-9,10-seco-5,7,10(19)-cholestatriene-1,3,25-triol], the VDR binding property was found to be 0.03. For `C=C1/C(=C/C=C2\CCCC3(C)C2CCC3[C@@H](C)CCCC(C)(C)O)C[C@H](O)[C@@H](C)[C@@H]1O` (stereo partly drawn) [Example 13, (5E,7E)-(1S,2R,3S,20S)-2-methyl-9,10-seco-5,7,10(19)-cholestatriene-1,3,25-triol], the VDR binding property was found to be 0.5.

`C=C1/C(=C/C=C2\CCCC3(C)C2CCC3[C@@H](C)CCCC(C)(C)O)C[C@H](O)[C@H](C)[C@@H]1O` (stereo partly drawn) [Example 14, (5E,7E)-(1S,2S,3S,20S)-2-methyl-9,10-seco-5,7,10(19)-cholestatriene-1,3,25-triol] gave a VDR binding property of 0.2. Take `C=C1/C(=C/C=C2\CCCC3(C)C2CCC3[C@@H](C)CCCC(C)(C)O)C[C@H](O)[C@@H](C)[C@H]1O` (stereo partly drawn) [Example 15, (5E,7E)-(1R,2R,3S,20S)-2-methyl-9,10-seco-5,7,10(19)-cholestatriene-1,3,25-triol]: the VDR binding property came out at 0.2. In turn, `C=C1/C(=C/C=C2\CCCC3(C)C2CCC3[C@@H](C)CCCC(C)(C)O)C[C@H](O)[C@H](C)[C@H]1O` (stereo partly drawn) [Example 16, (5E,7E)-(1R,2S,3S,20S)-2-methyl-9,10-seco-5,7,10(19)-cholestatriene-1,3,25-triol] showed a VDR binding property of 0.08.

These data come from US20050032754A1, “5,6-Trans-2-alkylvitamin D derivatives” (Hiroaki TAKAYAMA, priority 2000, published 2005).
